Source: patent US20070128217A1 (priority 2003, published 2007)

Experiments:
[1] = test system: antibodies in sera from SARS patients (sera 1a, 1b, 2, 6, 37, 62, London, SARS-yellow, SARS-green); assay type: binding, human; set-up: Binding of serum 6 to linear peptides of protein X1 of SARS-CoV Urbani / Binding of serum 37 to linear peptides of protein X1 of SARS-CoV Urbani / Binding of serum 6 to looped/cyclic peptide (PEPSCAN-ELISA) / Binding of serum 37 to looped/cyclic peptide (PEPSCAN-ELISA) / Binding of serum 37 to looped/cyclic peptides of protein X1 of SARS-CoV Urbani / Binding of serum 6 to linear peptides of protein X2 / Binding of serum 37 to linear peptides of protein X2 / Binding of serum 37 to looped/cyclic peptides of protein X2 of SARS-CoV Urbani / Binding of serum 6 to linear peptides of protein M of SARS-CoV Urbani / Binding of serum 37 to linear peptides of protein M of SARS-CoV Urbani / Binding of serum 6 to looped/cyclic peptides of protein M of SARS-CoV Urbani / Binding of serum 37 to looped/cyclic peptides of protein M of SARS-CoV Urbani / Binding of serum 6 to linear peptides of protein X3 of SARS-CoV Urbani / Binding of serum 37 to linear peptides of protein X3 of SARS-CoV Urbani / Binding of serum 37 to looped/cyclic peptides of protein X3 of SARS-CoV Urbani / Binding of serum 6 to linear peptides of protein X4 of SARS-CoV Urbani / Binding of serum 37 to linear peptides of protein X4 of SARS-CoV Urbani / Binding of serum 37 to looped/cyclic peptides of protein X4 of SARS-CoV Urbani / Binding of serum 6 to linear peptides of protein X5 of SARS-CoV Urbani / Binding of serum 37 to linear peptides of protein X5 of SARS-CoV Urbani / Binding of serum 37 to looped/cyclic peptides of protein X5 of SARS-CoV Urbani / Binding of serum 6 to linear peptides of protein N of SARS-CoV Urbani / Binding of serum 37 to linear peptides of protein N of SARS-CoV Urbani / Binding of serum 6 to linear peptide (PEPSCAN-ELISA) / Binding of serum 1a to looped/cyclic peptides of protein N of SARS-CoV Urbani / Binding of serum 1b to looped/cyclic peptides of protein N of SARS-CoV Urbani / Binding of serum 2 to looped/cyclic peptides of protein N of SARS-CoV Urbani / Binding of serum 6 to looped/cyclic peptides of protein N of SARS-CoV Urbani / Binding of serum 37 to looped/cyclic peptides of protein N of SARS-CoV Urbani / Binding of serum 62 to looped/cyclic peptides of protein N of SARS-CoV Urbani / Binding of serum London to looped/cyclic peptides of protein N of SARS-CoV Urbani / Binding of serum SARS-green to looped/cyclic peptides of protein N of SARS-CoV Urbani: unit not given here
[2] = test system: rabbit serum obtained by immunizing a rabbit with the SARS-CoV strain Frankfurt 1; assay type: binding; set-up: Binding of a rabbit serum to linear peptides / Binding of a rabbit serum to looped peptides / Rabbit serum linear peptides / Rabbit serum looped peptides / Binding of a rabbit serum to linear peptides of protein N of SARS-CoV Urbani (Rabbit serum linear peptides) / Binding of a rabbit serum to looped/cyclic peptides of protein N of SARS-CoV Urbani (Rabbit serum looped peptides): unit not given here
[3] = test system: control sera (pooled serum of ten healthy LUMC hospital workers; commercial negative donor pooled serum from the Dutch bloodbank); assay type: binding, human; set-up: Binding of Control serum LUMC to linear peptides / Binding of Control serum Blood-bank to linear peptides / Binding of Control serum LUMC to looped peptides / Binding of Control Serum Blood-Bank to Looped peptides / Binding of Control serum LUMC to linear peptides of the protein M of SARS-CoV Urbani / Binding of Control serum Blood-bank to linear peptides of the protein M of SARS-CoV Urbani / Binding of Control serum LUMC to looped peptides of the protein M of SARS-CoV Urbani / Binding of Control Serum Blood-Bank to Looped peptides of the protein M of SARS-CoV Urbani: unit not given here

ATIPLQASLPFGWLV
Binding of serum 1a to linear peptides of protein X1 of SARS-CoV Urbani [1]: 0.7
Binding of serum 1a to looped/cyclic peptide (PEPSCAN-ELISA) [1]: 0.6
Binding of serum 1b to linear peptides of protein X1 of SARS-CoV Urbani [1]: 0.5
Binding of serum 1b to looped/cyclic peptide (PEPSCAN-ELISA) [1]: 0.5
Binding of serum 2 to linear peptides of protein X1 of SARS-CoV Urbani [1]: 0.6
Binding of serum 2 to looped/cyclic peptide (PEPSCAN-ELISA) [1]: 0.6
Binding of serum 6 to linear peptides of protein X1 of SARS-CoV Urbani [1]: 0.6
Binding of serum 6 to looped/cyclic peptide (PEPSCAN-ELISA) [1]: 0.4
Binding of serum 37 to linear peptides of protein X1 of SARS-CoV Urbani [1]: 0.7
Binding of serum 37 to looped/cyclic peptide (PEPSCAN-ELISA) [1]: 0.7
Binding of serum 62 to linear peptides of protein X1 of SARS-CoV Urbani [1]: 0.7
Binding of serum 62 to looped/cyclic peptide (PEPSCAN-ELISA) [1]: 0.7
Binding of serum London to linear peptides of protein X1 of SARS-CoV Urbani [1]: 0.3
Binding of serum London to looped/cyclic peptide (PEPSCAN-ELISA) [1]: 0.3
Binding of serum SARS-green to linear peptides of protein X1 of SARS-CoV Urbani [1]: 0.2
Binding of serum SARS-green to looped/cyclic peptide (PEPSCAN-ELISA) [1]: 0.4
Binding of serum SARS-yellow to linear peptides of protein X1 of SARS-CoV Urbani [1]: 0.3
Binding of serum SARS-yellow to looped/cyclic peptide (PEPSCAN-ELISA) [1]: 0.3
Binding of a rabbit serum to linear peptides [2]: 0.1
Binding of a rabbit serum to looped peptides [2]: 0.5
Binding of Control Serum Blood-Bank to Looped peptides [3]: 0.7
Binding of Control serum Blood-bank to linear peptides [3]: 0.8
Binding of Control serum LUMC to linear peptides [3]: 0.5
Binding of Control serum LUMC to looped peptides [3]: 0.7

IWNLDVIISSIVRQL
Binding of serum 1a to linear peptides of protein X3 of SARS-CoV Urbani [1]: 0.7
Binding of serum 1a to looped/cyclic peptides of protein X3 of SARS-CoV Urbani [1]: 0.5
Binding of serum 1b to linear peptides of protein X3 of SARS-CoV Urbani [1]: 0.3
Binding of serum 1b to looped/cyclic peptides of protein X3 of SARS-CoV Urbani [1]: 0.4
Binding of serum 2 to linear peptides of protein X3 of SARS-CoV Urbani [1]: 0.5
Binding of serum 2 to looped/cyclic peptides of protein X3 of SARS-CoV Urbani [1]: 0.5
Binding of serum 6 to linear peptides of protein X3 of SARS-CoV Urbani [1]: 0.5
Binding of serum 6 to looped/cyclic peptides of protein X3 of SARS-CoV Urbani [1]: 0.6
Binding of serum 37 to linear peptides of protein X3 of SARS-CoV Urbani [1]: 0.6
Binding of serum 37 to looped/cyclic peptides of protein X3 of SARS-CoV Urbani [1]: 0.5
Binding of serum 62 to linear peptides of protein X3 of SARS-CoV Urbani [1]: 0.6
Binding of serum 62 to looped/cyclic peptides of protein X3 of SARS-CoV Urbani [1]: 0.4
Binding of serum London to linear peptides of protein X3 of SARS-CoV Urbani [1]: 0.6
Binding of serum London to looped/cyclic peptides of protein X3 of SARS-CoV Urbani [1]: 0.2
Binding of serum SARS-green to linear peptides of protein X3 of SARS-CoV Urbani [1]: 0.4
Binding of serum SARS-green to looped/cyclic peptides of protein X3 of SARS-CoV Urbani [1]: 0.3
Binding of serum SARS-yellow to linear peptides of protein X3 of SARS-CoV Urbani [1]: 0.2
Binding of serum SARS-yellow to looped/cyclic peptides of protein X3 of SARS-CoV Urbani [1]: 0.6
Rabbit serum linear peptides [2]: 0.2
Rabbit serum looped peptides [2]: 0.4
Binding of Control Serum Blood-Bank to Looped peptides of the protein X3 of SARS-CoV Urbani [3]: 0.7
Binding of Control serum Blood-bank to linear peptides of the protein X3 of SARS-CoV Urbani [3]: 0.6
Binding of Control serum LUMC to linear peptides of the protein X3 of SARS-CoV Urbani [3]: 0.5
Binding of Control serum LUMC to looped peptides of the protein X3 of SARS-CoV Urbani [3]: 0.7

SSLTSLLKTHRMCKY
Binding of serum 1a to linear peptides of protein X2 [1]: 0.6
Binding of serum 1a to looped/cyclic peptides of protein X2 of SARS-CoV Urbani [1]: 0.5
Binding of serum 1b to linear peptides of protein X2 [1]: 0.5
Binding of serum 1b to looped/cyclic peptides of protein X2 of SARS-CoV Urbani [1]: 0.5
Binding of serum 2 to linear peptides of protein X2 [1]: 0.4
Binding of serum 2 to looped/cyclic peptides of protein X2 of SARS-CoV Urbani [1]: 0.4
Binding of serum 6 to linear peptides of protein X2 [1]: 0.5
Binding of serum 6 to looped/cyclic peptides of protein X2 of SARS-CoV Urbani [1]: 0.3
Binding of serum 37 to linear peptides of protein X2 [1]: 0.5
Binding of serum 37 to looped/cyclic peptides of protein X2 of SARS-CoV Urbani [1]: 0.3
Binding of serum 62 to linear peptides of protein X2 [1]: 0.6
Binding of serum 62 to looped/cyclic peptides of protein X2 of SARS-CoV Urbani [1]: 0.6
Binding of serum London to linear peptides of protein X2 [1]: 0.4
Binding of serum London to looped/cyclic peptides of protein X2 of SARS-CoV Urbani [1]: 0.2
Binding of serum SARS-green to linear peptides of protein X2 [1]: 0.5
Binding of serum SARS-green to looped/cyclic peptides of protein X2 of SARS-CoV Urbani [1]: 0.2
Binding of serum SARS-yellow to linear peptides of protein X2 [1]: 0.3
Binding of serum SARS-yellow to looped/cyclic peptides of protein X2 of SARS-CoV Urbani [1]: 0.6
Binding of a rabbit serum to linear peptides [2]: 0.3
Binding of a rabbit serum to looped peptides [2]: 0.5
Binding of Control Serum Blood-Bank to Looped peptides [3]: 0.7
Binding of Control serum Blood-bank to linear peptides [3]: 0.8
Binding of Control serum LUMC to linear peptides [3]: 0.4
Binding of Control serum LUMC to looped peptides [3]: 0.6

LLKVTAFQHQNSKKT
Binding of serum 1a to linear peptides of protein X2 [1]: 0.2
Binding of serum 1a to looped/cyclic peptides of protein X2 of SARS-CoV Urbani [1]: 0.4
Binding of serum 1b to linear peptides of protein X2 [1]: 0.0
Binding of serum 1b to looped/cyclic peptides of protein X2 of SARS-CoV Urbani [1]: 0.3
Binding of serum 2 to linear peptides of protein X2 [1]: 0.1
Binding of serum 2 to looped/cyclic peptides of protein X2 of SARS-CoV Urbani [1]: 0.2
Binding of serum 6 to linear peptides of protein X2 [1]: 0.2
Binding of serum 6 to looped/cyclic peptides of protein X2 of SARS-CoV Urbani [1]: 0.2
Binding of serum 37 to linear peptides of protein X2 [1]: 0.5
Binding of serum 37 to looped/cyclic peptides of protein X2 of SARS-CoV Urbani [1]: 0.3
Binding of serum 62 to linear peptides of protein X2 [1]: 0.1
Binding of serum 62 to looped/cyclic peptides of protein X2 of SARS-CoV Urbani [1]: 0.4
Binding of serum London to linear peptides of protein X2 [1]: 0.2
Binding of serum London to looped/cyclic peptides of protein X2 of SARS-CoV Urbani [1]: 0.2
Binding of serum SARS-green to linear peptides of protein X2 [1]: 0.1
Binding of serum SARS-green to looped/cyclic peptides of protein X2 of SARS-CoV Urbani [1]: 0.3
Binding of serum SARS-yellow to linear peptides of protein X2 [1]: 0.1
Binding of serum SARS-yellow to looped/cyclic peptides of protein X2 of SARS-CoV Urbani [1]: 0.3
Binding of a rabbit serum to linear peptides [2]: 0.6
Binding of a rabbit serum to looped peptides [2]: 0.3
Binding of Control Serum Blood-Bank to Looped peptides [3]: 0.4
Binding of Control serum Blood-bank to linear peptides [3]: 0.3
Binding of Control serum LUMC to linear peptides [3]: 0.3
Binding of Control serum LUMC to looped peptides [3]: 0.5

DGTRHTYQLRARSVS
Binding of serum 1a to linear peptides of protein X4 of SARS-CoV Urbani [1]: 0.6
Binding of serum 1a to looped/cyclic peptides of protein X4 of SARS-CoV Urbani [1]: 0.8
Binding of serum 1b to linear peptides of protein X4 of SARS-CoV Urbani [1]: 0.5
Binding of serum 1b to looped/cyclic peptides of protein X4 of SARS-CoV Urbani [1]: 0.5
Binding of serum 2 to linear peptides of protein X4 of SARS-CoV Urbani [1]: 0.8
Binding of serum 2 to looped/cyclic peptides of protein X4 of SARS-CoV Urbani [1]: 0.8
Binding of serum 6 to linear peptides of protein X4 of SARS-CoV Urbani [1]: 0.8
Binding of serum 6 to looped/cyclic peptides of protein X4 of SARS-CoV Urbani [1]: 0.8
Binding of serum 37 to linear peptides of protein X4 of SARS-CoV Urbani [1]: 0.8
Binding of serum 37 to looped/cyclic peptides of protein X4 of SARS-CoV Urbani [1]: 0.7
Binding of serum 62 to linear peptides of protein X4 of SARS-CoV Urbani [1]: 0.7
Binding of serum 62 to looped/cyclic peptides of protein X4 of SARS-CoV Urbani [1]: 0.7
Binding of serum London to linear peptides of protein X4 of SARS-CoV Urbani [1]: 0.7
Binding of serum London to looped/cyclic peptides of protein X4 of SARS-CoV Urbani [1]: 0.4
Binding of serum SARS-green to linear peptides of protein X4 of SARS-CoV Urbani [1]: 0.4
Binding of serum SARS-green to looped/cyclic peptides of protein X4 of SARS-CoV Urbani [1]: 0.6
Binding of serum SARS-yellow to linear peptides of protein X4 of SARS-CoV Urbani [1]: 0.5
Binding of serum SARS-yellow to looped/cyclic peptides of protein X4 of SARS-CoV Urbani [1]: 0.7
Recognition of the peptide by the rabbit serum [2]: recognized
Binding of Control Serum Blood-Bank to Looped peptides [3]: 0.8
Binding of Control serum Blood-bank to linear peptides [3]: 0.6
Binding of Control serum LUMC to linear peptides [3]: 0.5
Binding of Control serum LUMC to looped peptides [3]: 0.7
